In patent publication US8318787B2, “Prodrugs of (3,5-bis(4-fluorophenyl)tetrahydro-1H-oxazolo[3,4-C]oxazol-7A-yl)methanol and derivatives thereof” (University of Kansas, priority 2005, dated 2012):

Columns and labels:
Tubulin [1] = details: reported by Shintani et al. 1997; cited from earlier work
Tubulin [2] = assay: Tubulin assembly centrifugation assay; type: biochemical; details: 1.0 μM compound
Experimental: In this example, the mechanism of TH-237A's neuroprotective effects was investigated. In a first experiment, the microtubule-stabilizing ability of TH-237A was investigated using a tubulin assembly centrifugation assay. Tubulin (1.0 mg/ml), free of microtubule-associated proteins (“MAPs”), was incubated in PEM buffer (0.1 M Pipes, 1 mM EGTA, 1 mM MgSO4, pH 6.9), 4% DMSO, various concentrations of paclitaxel or TH-237A, with or without 0.5 mM GTP, in a total volume of 0.1 ml for 15 minutes at 37° C. Samples were centrifuged at 50,000×g for 4 minutes in a Beckman TL-100 ultracentrifuge. Protein determinations were performed on the supernatants and the amount of polymer formed was calculated from the difference between the starting concentration and the supernatant concentration. The maximum concentration of polymer was taken to be that formed at 25 μM paclitaxel. An experiment was also done using a tubulin preparation containing microtubule-associated proteins (“MTP”) at a protein concentration of 2 mg/ml without GTP.

in vitro = details: bovine, pH 7.4
Experimental: The BBMECs were grown on 0.4 μm polycarbonate membranes. […] Transport studies were performed in pH 7.4 standard buffer solutions, consisting of either Hank's balanced salt solution (HBSS) or phosphate buffered saline (PBS) supplemented with 0.63 mM CaCl2, 0.74 mM MgSO4, 5.3 mM glucose and 0.1 mM ascorbic acid (PBSA). Briefly, all studies were performed in 3 ml of PBSA in each donor and receiver chamber of the side-by-side diffusion chambers and stirred at 600 rpm at 37° C. The cells were allowed to equilibrate in PBSA for 30 minutes prior to each experiment and oriented such that apical or blood side of the cells face the donor chamber and the basolateral or brain side of the cells adhere to the polycarbonate membranes and face the receiver chamber of the diffusion apparatus. At each time point, a 100 μl sample was taken from the receiver compartment and immediately replaced with an equal volume of PBSA. The transport studies were performed in the presence or absence of CsA (5-10 μM). Monolayers were checked for trypan blue exclusion after experiments as well to assess general cell viability. The permeability of all monolayers used in these experiments was monitored for [^14C] sucrose leakage as a measure of potential TH-237A-induced loss of integrity. The radioactivity was quantified using liquid scintillation spectrometry.

microtubules [3] = assay: Cold stability of microtubules; type: biochemical; details: 25 μM compound, on ice 15 minutes
Experimental: In another experiment, the cold stability of microtubles was investigated. Microtubules were formed from MAP-free tubulin (2 mg/ml) and MTP (2 mg/ml) at 37° C. A sample was centrifuged at 50,000×g to determine the amount of polymer formed. To three other samples DMSO, 20 μM paclitaxel or 400 μM TH-237A was added, and the samples were placed on ice for 15 minutes before centrifuging at 4° C. Pellets were dissolved in 0.1 ml of 0.1 M NaOH and protein determinations were made on the supernatants and pellets. Cold-induced depolymerization leads to an increase in the supernatant protein concentration.

microtubules [4] = assay: Competitive binding of paclitaxel and TH-237A to microtubules; details: addition of 40 μM Taxol
Experimental: Competitive binding of paclitaxel and TH-237A—Microtubules were formed from MTP (2 mg/ml) in the presence of 0.5 mM GTP. […] […] After 10 minutes at 37° C., the microtubules were collected by centrifugation and dissolved in 0.1 ml of 0.1 M NaOH. Protein and radioactivity determinations of the dissolved microtubules were performed.

cellular microtubules = assay: Immunostaining of cellular microtubules; type: cell-based; details: 1 and 10 μM
Experimental: Immunostaining of cellular microtubules—Cells were grown in monolayer on sterile slide cover slips in a 6-well plate and treated with paclitaxel or TH-237A for different periods of time. The cover slips were washed with phosphate-buffered saline and the cells fixed by treatment with 95% EtOH at −20° C. for 30 minutes. The cover slips were placed in a humidified chamber and treated with the primary antibody (a mouse anti-β-tubulin monoclonal antibody) for 2 hours to overnight at room temperature. This was followed by washing with phosphate-buffered saline and treatment with the secondary antibody (FITC goat anti-mouse) for 1 hour at room temperature. Cover slips were examined on a Nikon Optiphot fluorescence microscope.

Papp (in vitro)	displacement of bound labeled TH-237A (100 μM) from microtubules (microtubules [4])	Structure (SMILES)	stimulation of tubulin polymerization relative to paclitaxel (Tubulin [1])	% of tubulin polymerized (Tubulin [2])	cold-induced depolymerization of microtubules prevented (microtubules [3])	polymerization of the microtubules in situ in the cells (cellular microtubules)
		OCC12CO[C@H](c3ccc(F)cc3)N1[C@@H](c1ccc(F)cc1)OC2 [GS-164, (3R,5R)-(3,5-bis(4-fluorophenyl)tetrahydro-1H-oxazolo[3,4-c]oxazol-7a-yl)methanol]	one-tenth			
5 ×10⁻⁶ cm/s	about 5%	CC(=O)O[C@H]1C(=O)[C@@]2(C)[C@H]([C@H](OC(=O)c3ccccc3)[C@]3(O)C[C@H](OC(=O)[C@H](O)[C@@H](NC(=O)c4ccccc4)c4ccccc4)C(C)=C1C3(C)C)[C@]1(OC(C)=O)CO[C@@H]1C[C@@H]2O [Taxol, Paclitaxel]		75%	~100%	clearly evident
